{
  "source": "paper PMC8467962",
  "about": "“Design and Synthesis of Water-Soluble and Potent MMP-13 Inhibitors with Activity in Human Osteosarcoma Cells” (International Journal of Molecular Sciences, 2021)",
  "key": {"[1]": {"assay": "Thermodynamic solubility (shake flask method)", "format": "physicochemical", "conditions": "phosphate buffer, aqueous buffer, thermodynamic from solid; PBS pH 7.4, shake flask, room temperature; read-out: Experimental Water Solubility LogS (converted)", "protocol": "The samples were sonicated for 10 min and shaken overnight at 800 rpm (FB15013 TopMix, Fischer Scientific, Waltham, MA, USA) at room temperature. A first phase separation of supernatant and undissolved solid was performed by centrifugation at 5000 rpm for 20 min (Biofuge primo R). The supernatant was then transferred into Eppendorf tubes for a second centrifugation. An adequate dilution was made using the particle-free supernatant and the concentration quantified by LC-HRMS using a 4-point calibration curve (Agilent 1260 Infinity II).\nPART A. Calibration curves of compounds for solubility\n9e, 10a-e), 4-points calibration curves were made for each compound. Calibrations curves were obtained using four different concentrations of the corresponding compound (0.1 mg/mL, 0.01 mg/mL, 0.001 mg/mL and 0.0001 mg/mL). All samples were prepared in DMSO and measured in a LC-HRMS (Agilent 1260 Infinity II).\nFigure S1. Calibration curves of all active compounds (solubility studies) (1, 2, 9a, 9e, 10a-e) […]"}, "MMP-13": {"target": "T1, MMP-13 (Homo sapiens, UniProt P45452)", "T1 construct": "the catalytic domains of the corresponding MMP were incubated in triplicate; purchased Enzo Life Science International, Inc", "parameters": "method as in PMID 30629065", "conditions": "cited from earlier work"}, "MMP-2": {"target": "T2, MMP-2 (Homo sapiens, UniProt P08253)", "T2 construct": "the catalytic domains of the corresponding MMP were incubated in triplicate; purchased Enzo Life Science International, Inc", "T2 sequence (P08253 110-446 limits assumed)": "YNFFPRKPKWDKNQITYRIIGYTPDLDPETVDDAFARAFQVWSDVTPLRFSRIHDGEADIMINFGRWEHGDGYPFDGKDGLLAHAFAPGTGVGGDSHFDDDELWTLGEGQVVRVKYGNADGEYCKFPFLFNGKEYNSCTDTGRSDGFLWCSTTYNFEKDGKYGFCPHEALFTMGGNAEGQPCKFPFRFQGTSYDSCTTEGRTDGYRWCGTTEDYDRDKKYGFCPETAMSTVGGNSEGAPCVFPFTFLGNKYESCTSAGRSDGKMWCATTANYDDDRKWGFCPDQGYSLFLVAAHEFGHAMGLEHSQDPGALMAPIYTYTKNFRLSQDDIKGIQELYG", "parameters": "method as in PMID 30629065", "conditions": "cited from earlier work"}, "MMP-1": {"target": "T3, MMP-1 (Homo sapiens, UniProt P03956)", "T3 construct": "the catalytic domains of the corresponding MMP were incubated in triplicate; purchased Enzo Life Science International, Inc", "T3 sequence (P03956 100-269 limits assumed)": "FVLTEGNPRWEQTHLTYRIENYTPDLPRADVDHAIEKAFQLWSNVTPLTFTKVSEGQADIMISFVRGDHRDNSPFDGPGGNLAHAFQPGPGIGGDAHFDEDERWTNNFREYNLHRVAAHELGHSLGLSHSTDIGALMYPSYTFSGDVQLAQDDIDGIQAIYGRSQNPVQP", "parameters": "method as in PMID 30629065", "conditions": "panel of MMPs; cited from earlier work"}, "MMP-3": {"target": "T4, MMP-3 (Homo sapiens, UniProt P08254)", "T4 construct": "the catalytic domains of the corresponding MMP were incubated in triplicate; purchased Enzo Life Science International, Inc", "T4 sequence (P08254 100-272 limits assumed)": "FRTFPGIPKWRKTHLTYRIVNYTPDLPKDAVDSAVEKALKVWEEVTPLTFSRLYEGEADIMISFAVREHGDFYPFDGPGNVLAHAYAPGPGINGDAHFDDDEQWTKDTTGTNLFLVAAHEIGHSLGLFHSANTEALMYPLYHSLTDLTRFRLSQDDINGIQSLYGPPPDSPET", "parameters": "method as in PMID 30629065", "conditions": "panel of MMPs; cited from earlier work"}, "MMP-7": {"target": "T5, MMP-7 (Homo sapiens, UniProt P09237)", "T5 construct": "the catalytic domains of the corresponding MMP were incubated in triplicate; purchased Enzo Life Science International, Inc", "T5 sequence (P09237 95-267)": "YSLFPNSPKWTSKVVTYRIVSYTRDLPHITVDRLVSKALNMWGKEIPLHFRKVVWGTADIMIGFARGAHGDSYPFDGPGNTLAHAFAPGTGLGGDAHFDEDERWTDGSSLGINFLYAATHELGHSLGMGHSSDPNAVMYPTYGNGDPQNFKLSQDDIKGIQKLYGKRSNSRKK", "parameters": "method as in PMID 30629065", "conditions": "panel of MMPs; cited from earlier work"}, "MMP-8": {"target": "T6, MMP-8 (Homo sapiens, UniProt P22894)", "T6 construct": "the catalytic domains of the corresponding MMP were incubated in triplicate; purchased Enzo Life Science International, Inc", "T6 sequence (P22894 100-262 limits assumed)": "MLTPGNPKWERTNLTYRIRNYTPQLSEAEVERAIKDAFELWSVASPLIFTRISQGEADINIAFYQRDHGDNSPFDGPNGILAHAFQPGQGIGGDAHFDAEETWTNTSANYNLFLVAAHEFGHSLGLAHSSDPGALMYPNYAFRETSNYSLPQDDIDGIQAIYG", "parameters": "method as in PMID 30629065", "conditions": "panel of MMPs; cited from earlier work"}, "MMP-9": {"target": "T7, MMP-9 (Homo sapiens, UniProt P14780)", "T7 construct": "the catalytic domains of the corresponding MMP were incubated in triplicate; purchased Enzo Life Science International, Inc", "T7 sequence (P14780 107-444 limits assumed)": "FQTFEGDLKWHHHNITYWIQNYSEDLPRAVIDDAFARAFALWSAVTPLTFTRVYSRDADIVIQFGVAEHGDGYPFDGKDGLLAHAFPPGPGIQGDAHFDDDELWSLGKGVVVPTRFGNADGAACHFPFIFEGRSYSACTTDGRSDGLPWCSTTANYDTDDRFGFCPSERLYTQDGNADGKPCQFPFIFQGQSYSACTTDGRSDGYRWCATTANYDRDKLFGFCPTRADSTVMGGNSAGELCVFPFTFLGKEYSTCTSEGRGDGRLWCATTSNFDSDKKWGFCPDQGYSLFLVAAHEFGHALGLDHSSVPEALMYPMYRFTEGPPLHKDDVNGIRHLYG", "parameters": "method as in PMID 30629065", "conditions": "panel of MMPs; cited from earlier work"}, "MMP-10": {"target": "T8, MMP-10 (Homo sapiens, UniProt P09238)", "T8 construct": "the catalytic domains of the corresponding MMP were incubated in triplicate; purchased Enzo Life Science International, Inc", "T8 sequence (P09238 99-263 limits assumed)": "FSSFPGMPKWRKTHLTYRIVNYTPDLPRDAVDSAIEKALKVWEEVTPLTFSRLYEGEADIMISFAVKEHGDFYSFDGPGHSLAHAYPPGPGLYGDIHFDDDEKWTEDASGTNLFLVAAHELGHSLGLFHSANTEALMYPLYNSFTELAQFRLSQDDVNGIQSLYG", "parameters": "method as in PMID 30629065", "conditions": "panel of MMPs; cited from earlier work"}, "MMP-12": {"target": "T9, MMP-12 (Homo sapiens, UniProt P39900)", "T9 construct": "the catalytic domains of the corresponding MMP were incubated in triplicate; purchased Enzo Life Science International, Inc", "T9 sequence (P39900 106-263 limits assumed)": "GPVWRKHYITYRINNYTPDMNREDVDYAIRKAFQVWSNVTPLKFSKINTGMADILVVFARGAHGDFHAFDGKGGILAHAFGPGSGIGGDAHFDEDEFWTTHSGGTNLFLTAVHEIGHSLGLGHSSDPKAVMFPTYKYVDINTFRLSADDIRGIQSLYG", "parameters": "method as in PMID 30629065", "conditions": "panel of MMPs; cited from earlier work"}, "MMP-14": {"target": "T10, MMP-14 (Homo sapiens, UniProt P50281)", "T10 construct": "the catalytic domains of the corresponding MMP were incubated in triplicate; purchased Enzo Life Science International, Inc", "parameters": "method as in PMID 30629065", "conditions": "panel of MMPs; cited from earlier work"}},
  "note": "Like-named read-outs stand apart in the source and are kept apart here.",
  "data": [
    {"smiles": "O=C(NO)[C@@H](Cc1ccccc1)NS(=O)(=O)c1ccc(-n2cc(CCn3nc4c(Br)c(Br)c(Br)c(Br)c4n3)nn2)cc1", "note": "[Compound 1]", "values": [
      {"measurement": "solubility", "setting": "[1]", "result": 2.88, "unit": "µM"},
      {"measurement": "IC50", "setting": "MMP-13; panel of MMPs, read-out: IC50 MMP-13", "result": 3.7, "unit": "nM"},
      {"measurement": "IC50", "setting": "MMP-13; previous work, read-out: MMP-13 IC50", "result": "3.7 ± 1.85", "unit": "nM"},
      {"measurement": "IC50", "setting": "MMP-2; panel of MMPs, read-out: IC50 MMP-2", "result": 70, "unit": "nM"},
      {"measurement": "IC50", "setting": "MMP-2; previous work, read-out: MMP-2 IC50", "result": 70, "unit": "nM"},
      {"measurement": "IC50", "setting": "MMP-1", "result": "> 1000", "unit": "nM"},
      {"measurement": "IC50", "setting": "MMP-3", "result": 500, "unit": "nM"},
      {"measurement": "IC50", "setting": "MMP-7", "result": "> 1000", "unit": "nM"},
      {"measurement": "IC50", "setting": "MMP-8", "result": "> 500", "unit": "nM"},
      {"measurement": "IC50", "setting": "MMP-9", "result": "> 500", "unit": "nM"},
      {"measurement": "IC50", "setting": "MMP-10", "result": 434, "unit": "nM"},
      {"measurement": "IC50", "setting": "MMP-12", "result": 17.8, "unit": "nM"},
      {"measurement": "IC50", "setting": "MMP-14", "result": "> 1000", "unit": "nM"}
    ]}
  ]
}
